The record followed here is patent publication EP1375483A1, “6-CHLORO-3-PYRIDYLMETHYLPROPYLAMINE DERIVATIVES, PREPARATION PROCESS THEREOF AND BACTERICIDES” (KUREHA KAGAKU KOGYO KABUSHIKI KAISHA, priority 2001, dated 2001).

The test system of one assay is Venturia inaequalis. Nature of the assay: Antifungal activity test against various pathogenic fungi, hypha extension on PDA plates (Test Example 3). To be noted: read-out: Growth Inhibition V.i (3.2). In kind it is cell-based.
Assay [1] relates to wheat powdery mildew. Description: Permeable mobility fungicidal effect test in leaf section of wheat powdery mildew (Test Example 4). The class given is in vivo. To be noted: 24 h, 200 ug/mL. On the procedure:
In the test example 4, permeable mobility fungicidal effect test was performedon the leaf section of wheat powdery mildew with regard to the compounds I-1 to 27 according to the present invention and the comparative compounds (a) to (d), and (m-1) to (m-3) with the method described later. The compound in the form of a wettable powder obtained by Formulation 2 or the like was diluted and suspended with water to a predetermined concentration (200mg/l), and 0.5 µl of the suspension was applied to a 2 to 3 cm leaf portion from the root of the three leaves of the 4th to 4.5th leaf period wheat (variety: Abukumawase) cultured by using a square plastic pot (size: 6.4 cm x 6.4 cm). After these wheat leaves were subject to still standing in a glass house (temperature: 20 to 24C, relative humidity: 20 to 70 RH) for one day, the spores of wheat powdery mildew were inoculated over the leaves by sprinkling the same with a brush from an infected leaf, a disease was contracted in the same glass house. The length of a non-contracted area generated from the applied portion to the direction of the leaf top was measured, and a relative mobility to the compound (m-2) was calculated with the following calculation […] by using the comparative compound (m-2) as a standard compound. (Equation 4) Relative mobility = (Length of non-contracted area in each chemical section (cm)/Length of non-contracted area of compound (m-2) (cm)) [formula]

The next assay has as its system Botrytis cinerea. Description: Antifungal activity test against various pathogenic fungi, hypha extension on PDA plates (Test Example 3). The conditions noted are these: read-out: Growth Inhibition B.c (1.6). In kind it is cell-based.
Another assay has as its system Rhynchosporium secalis. Described as above. To be noted: read-out: Growth Inhibition R.s (100). The class given is cell-based.
The next assay relates to Pyrenophora graminea. The assay is described as above. The conditions noted are these: read-out: Growth Inhibition P.g (12.5). In kind it is cell-based.
In assay [2] the test system is wheat powdery mildew. Nature of the assay: Test of control effect on wheat powdery mildew (Test Example 1). The conditions noted are these: wettable powder 125 mg/l, 100 liters/10 a, sprinkled on wheat seedlings (Nourin 64) before inoculation; examined 9th to 14th day after inoculation. The class given is in vivo. On the procedure: Wettable powders were prepared from compounds of the present invention I-1 to I-27 and comparative compounds (a) to (d) , (m-1) and (m-3). The obtained wettable powder was diluted and suspended with water to provide the predetermined concentration (125 mg/l), and was sprinkled onto seedlings of wheat (variety: "Nourin 64") at the first to the second leaf period which were cultivated using square plastic pots (size: 6.4 cm x 6.4 cm) in a rate of 100 liters/10 a (ares). After drying the sprinkled leaves with air, a suspension of wheat powdery mildew spores taken from infected leaves was inoculated by spraying onto the sprinkled leaves. They were supervised in a green house (temperature: 20 to 24°C, relative humidity: 20 to 70 RH). On the 9th to 14th day after the inoculation, the infection degree was examined according to the following scale and the control value of each compound was calculated by the following calculation equation 1. [table] (Equation 1) Control value = (1 - infection degree of treated zone/infection degree of untreated zone) x 100 (%) [formula] The control values of each compound are shown in Table 8.

Assay [3] has as its system Pseudocercosporella herpotrichoides. Nature of the assay: Antifungal activity test against various pathogenic fungi, hypha extension on PDA plates (Test Example 3). The class given is cell-based. To be noted: Oculimacula yallundae, read-out: Growth Inhibition P.h (25).
Another assay relates to Pyricularia oryzae. Description: microbe, parasite or virus in culture. The class given is cell-based. The conditions noted are these: read-out: Growth Inhibition P.o (12.5).
Another assay concerns cucumber powdery mildew. Description: Test of control effect on cucumber powdery mildew (Test Example 2). The class given is in vivo. The conditions noted are these: wettable powder 100 mg/l, 100 liters/10 a, sprinkled on cucumbers (Sagamihanpakufushinari) before inoculation; examined 9th to 14th day after inoculation. On the procedure:
The wettable powders formulated by using each of the compounds I-1 to 27 according to the present invention and the comparative compounds (a) to (d), (m-1) and (m-3) were each diluted and suspended with water to a predetermined concentration (100 mg/l), the suspension was sprinkled over the first to the second leaf period cucumbers (variety: "[…]") cultivated by using a square plastic pot (size: 6. 4 cm x 6. 4 cm) in a rate of 100 liters/10 a (ares). After the sprinkled leaves were air-dried, the spores were inoculated over the leaves by sprinkling the same with a brush from an infected leaf, a disease was contracted in a glass house (temperature: 20 to 24°C, relative humidity: 20 to 70 RH). On the 9th to 14th day after the inoculation, the infection degree was examined according to the following scale and the control value of each compound was calculated by the following calculation equation 2: [table] (Equation 2) Control value = (1 - infection degree of treated zone/infection degree of untreated zone) x 100 (%) [formula] The control values of each compound are shown in Table 9.

In another assay the test system is Septoria tritici. Nature of the assay: Antifungal activity test against various pathogenic fungi, hypha extension on PDA plates (Test Example 3). In kind it is cell-based. To be noted: Zymoseptoria tritici, read-out: Growth Inhibition S.t (100).
In the next assay the test system is Microdochium nivale. The description is as above. The class given is cell-based. To be noted: read-out: Growth Inhibition M.n (3.2).
A further assay has as its system Leptosphaeria nodorum. The assay is described as above. In kind it is cell-based. To be noted: Parastagonospora nodorum, read-out: Growth Inhibition L.n (0.8).

For `CC(Cc1ccc2c(c1)OC(F)(F)O2)CN(C)Cc1ccc(Cl)nc1` (stereo not drawn) [Compound I-24], the inhibition at 3.2 ppm with Venturia inaequalis and in the assay with Microdochium nivale was 70 to 90% throughout. The “Relative Mobility” value with wheat powdery mildew [1] is listed as 6. The inhibition at 1.6 ppm in the assay with Botrytis cinerea lay in the range of 70 to 90%. In addition, the inhibition at 100 ppm in the assay on Rhynchosporium secalis was above 90%; with Septoria tritici it was 70 to 90%. The inhibition at 12.5 ppm is above 90% in the assay on Pyrenophora graminea and 70 to 90% with Pyricularia oryzae. The “Control Value” in the assay with wheat powdery mildew [2] and in the assay on cucumber powdery mildew was 100% each time. Further, the inhibition at 25 ppm in assay [3] was above 90%. Besides, the inhibition at 0.8 ppm in the assay on Leptosphaeria nodorum is above 90%.
